Key:
[1] = Biodistribution of radiotracers in normal mice; assay type: in vivo, mouse; conditions: normal male mice
Experimental: Normal CD-1 male mice were injected via the tail vein with 35 μCi of [^68Ga] radiotracers (0.2 nmole of ligand). […] All organs were removed and blood was also collected. Each organ was weighed, and the tissue radioactivity was measured with an automated gamma counter (Wizard, Perkin Elmer). The % ID/g was calculated by comparison with samples of a standard dilution of the initial dose. All measurements were corrected for decay.

[2] = test system: LNCaP (left shoulder) and PC-3 (right shoulder) tumor bearing nude mouse; experiment: Small animal PET imaging with [68Ga]1a and [68Ga]4a; assay type: in vivo; conditions: 60 to 75 min after i.v. injection
Experimental: Male athymic mice (CD-1 nude, 5-6 weeks old) were obtained from Charles River, and were allowed to acclimatize at the vivarium for 1 week prior to implanting tumors. Mice were provided with food and water ad libitum. LNCaP tumors were induced on the left shoulder by sub-cutaneous (s.c.) injection of 5.0×10^6 cells in a 200 μL cell suspension of a 1:1 v/v mixture of media with reconstituted basement membrane (BD Matrigel™, Collaborative Biomedical Products Inc., Bedford, Mass.). Similarly, PC-3 tumors were induced on the right shoulder by s.c. injection of 2.0×10^6 cells. Palpable LNCaP tumors developed after a period of 4-5 weeks.
Dynamic small animal PET (APET) imaging studies of LNCaP (left shoulder) and PC-3 (right shoulder) tumor bearing nude mouse were performed with [^68Ga]1a and [^68Ga]4a. PET imaging studies were performed on a Phillips Mosaic small animal PET scanner, which has an imaging field of view of 11.5 cm. Under isoflurane anesthesia (1-2%, 1 L/min oxygen), the tumor-bearing nude mouse was injected with 0.5 mCi activity by an intravenous injection into the lateral tail vein. Data acquisition began at 30 min after the injection. Dynamic scans were conducted over a period of 1 h (5 min/frame; image voxel size 0.5 mm^3). Mouse was visually monitored for breathing, and a heating pad was used to maintain body temperature throughout the entire procedure. Images were reconstructed and a region of interest (ROI) analysis was performed using AMIDE software (http://amide.sourceforge.net/).
Representative animal PET images of LNCaP xenograft mice between 60 to 75 min after i.v. injection of [^68Ga]1a, and [^68Ga]4a are shown in FIGS. 3A-3F. […] FIGS. 3A-3F show sagittal, transaxial and coronal sections of APET images of nude mouse with LNCaP tumor at left shoulder and PC-3 tumor at right shoulder between 60 to 75 min post i.v. injection of [^68Ga]1a (FIGS. 3A-3C) and [^68Ga]4a (FIG. 3D-3F).

O=C(O)CCc1ccc(O)c(CN(CCN(CC(=O)O)Cc2cc(CCC(=O)NCCCCCC(=O)NCCCC[C@H](NC(=O)N[C@@H](CCC(=O)O)C(=O)O)C(=O)O)ccc2O)CC(=O)O)n1 [[^68Ga]4a, metal not drawn]
Biodistribution: Blood ([1]; 2 min): 8.59 ± 0.82 % dose/g | Biodistribution: Bone ([1]; 2 min): 2.33 ± 0.21 % dose/g | Biodistribution: Brain ([1]; 2 min): 0.27 ± 0.04 % dose/g | Biodistribution: Heart ([1]; 2 min): 3.62 ± 0.34 % dose/g | Biodistribution: Kidney ([1]; 2 min): 60.7 ± 2.89 % dose/g | Biodistribution: Liver ([1]; 2 min): 2.22 ± 0.23 % dose/g | Biodistribution: Lung ([1]; 2 min): 5.45 ± 0.44 % dose/g | Biodistribution: Muscle ([1]; 2 min): 2.68 ± 0.30 % dose/g | Biodistribution: Pancreas ([1]; 2 min): 2.35 ± 0.12 % dose/g | Biodistribution: Skin ([1]; 2 min): 2.84 ± 0.19 % dose/g | Biodistribution: Spleen ([1]; 2 min): 3.64 ± 0.16 % dose/g | Biodistribution: Blood ([1]; 30 min): 0.95 ± 0.33 % dose/g | Biodistribution: Bone ([1]; 30 min): 0.37 ± 0.10 % dose/g | Biodistribution: Brain ([1]; 30 min): 0.04 ± 0.01 % dose/g | Biodistribution: Heart ([1]; 30 min): 0.56 ± 0.21 % dose/g | Biodistribution: Kidney ([1]; 30 min): 148 ± 5.73 % dose/g | Biodistribution: Liver ([1]; 30 min): 0.39 ± 0.12 % dose/g | Biodistribution: Lung ([1]; 30 min): 1.55 ± 0.30 % dose/g | Biodistribution: Muscle ([1]; 30 min): 0.61 ± 0.10 % dose/g | Biodistribution: Pancreas ([1]; 30 min): 0.89 ± 0.12 % dose/g | Biodistribution: Skin ([1]; 30 min): 0.99 ± 0.16 % dose/g | Biodistribution: Spleen ([1]; 30 min): 3.51 ± 1.69 % dose/g | Biodistribution: Blood ([1]; 60 min): 0.30 ± 0.03 % dose/g | Biodistribution: Bone ([1]; 60 min): 0.24 ± 0.02 % dose/g | Biodistribution: Brain ([1]; 60 min): 0.03 ± 0.00 % dose/g | Biodistribution: Heart ([1]; 60 min): 0.31 ± 0.14 % dose/g | Biodistribution: Kidney ([1]; 60 min): 181 ± 26.81 % dose/g | Biodistribution: Liver ([1]; 60 min): 0.23 ± 0.01 % dose/g | Biodistribution: Lung ([1]; 60 min): 1.18 ± 0.14 % dose/g | Biodistribution: Muscle ([1]; 60 min): 0.35 ± 0.07 % dose/g | Biodistribution: Pancreas ([1]; 60 min): 1.09 ± 0.27 % dose/g | Biodistribution: Skin ([1]; 60 min): 0.45 ± 0.07 % dose/g | Biodistribution: Spleen ([1]; 60 min): 2.83 ± 1.49 % dose/g | Biodistribution: Blood ([1]; 120 min): 0.20 ± 0.10 % dose/g | Biodistribution: Bone ([1]; 120 min): 0.23 ± 0.06 % dose/g | Biodistribution: Brain ([1]; 120 min): 0.02 ± 0.00 % dose/g | Biodistribution: Heart ([1]; 120 min): 0.21 ± 0.03 % dose/g | Biodistribution: Kidney ([1]; 120 min): 128 ± 25.0 % dose/g | Biodistribution: Liver ([1]; 120 min): 0.18 ± 0.05 % dose/g | Biodistribution: Lung ([1]; 120 min): 0.83 ± 0.21 % dose/g | Biodistribution: Muscle ([1]; 120 min): 0.20 ± 0.03 % dose/g | Biodistribution: Pancreas ([1]; 120 min): 1.02 ± 0.26 % dose/g | Biodistribution: Skin ([1]; 120 min): 0.30 ± 0.02 % dose/g | Biodistribution: Spleen ([1]; 120 min): 2.83 ± 1.25 % dose/g | LNCaP tumor visualization in PET images, in words [2]: clearly visualized | PC-3 (PSMA negative) tumor uptake in PET images, in words [2]: did not show any uptakes

— US10688200B2, “Urea-based prostate specific membrane antigen (PSMA) inhibitors for imaging and therapy” (Five Eleven Pharma Inc., priority 2015, dated 2020)
